# Test results: article PMC11881918, “Kir7.1 is the physiological target for hormones and steroids that regulate uteroplacental function” (Science Advances, 2025)
# How the values were obtained:
# Format in all cases: cell-based
# Kir7.1 (hKir7.1) [1] = target: T1, Kir7.1 (hKir7.1) (Homo sapiens, UniProt O60928); experiment: whole-cell patch clamp, inhibition of P4-activated current; parameters: gene KCNJ13; recombinant hKir7.1 in HEK293 cells
# T1 sequence (O60928 1-360): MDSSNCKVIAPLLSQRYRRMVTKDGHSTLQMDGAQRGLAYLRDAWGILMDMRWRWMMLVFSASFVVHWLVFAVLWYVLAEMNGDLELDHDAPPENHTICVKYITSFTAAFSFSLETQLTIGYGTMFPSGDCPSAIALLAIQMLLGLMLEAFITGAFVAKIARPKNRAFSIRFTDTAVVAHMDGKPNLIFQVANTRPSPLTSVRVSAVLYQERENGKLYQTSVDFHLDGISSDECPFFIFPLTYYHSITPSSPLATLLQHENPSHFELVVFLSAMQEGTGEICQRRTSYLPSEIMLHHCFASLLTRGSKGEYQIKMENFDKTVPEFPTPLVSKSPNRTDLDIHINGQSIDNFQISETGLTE
# murine Kir7.1 = target: T2, murine Kir7.1 (Mus musculus, UniProt P86046); experiment: whole-cell patch clamp, dose response of current potentiation
# T2 construct: gene Kcnj13; recombinant murine Kir7.1 in HEK293 cells
# T2 sequence (P86046 1-360): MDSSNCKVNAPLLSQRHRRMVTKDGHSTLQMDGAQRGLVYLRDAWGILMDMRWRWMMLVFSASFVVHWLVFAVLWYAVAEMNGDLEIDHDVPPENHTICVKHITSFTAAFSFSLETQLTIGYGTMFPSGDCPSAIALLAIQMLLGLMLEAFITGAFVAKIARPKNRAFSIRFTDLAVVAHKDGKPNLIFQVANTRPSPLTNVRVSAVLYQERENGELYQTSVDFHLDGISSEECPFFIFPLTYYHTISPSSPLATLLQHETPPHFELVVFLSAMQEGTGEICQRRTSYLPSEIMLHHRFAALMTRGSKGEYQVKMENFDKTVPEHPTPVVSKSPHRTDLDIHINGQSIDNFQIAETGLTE
# Kir7.1 (hKir7.1) [2] = target: T1, Kir7.1 (hKir7.1); experiment: whole-cell patch clamp, dose response of current potentiation at -80 mV; parameters: gene KCNJ13; recombinant hKir7.1 (pIRES2-eGFP-hKir7.1) in HEK293 cells and HUtSMCs
SMILES,IC50 (Kir7.1 (hKir7.1) [1]) [µM],EC50 (murine Kir7.1),EC50 (Kir7.1 (hKir7.1) [2])
"C[C@]12CC[C@@H]3c4ccc(O)cc4CC[C@H]3[C@@H]1CC[C@@H]2O [E2, 17β-estradiol]",8.6,–,–
"CC(=O)[C@H]1CC[C@H]2[C@@H]3CCC4=CC(=O)CC[C@]4(C)[C@H]3CC[C@]12C [P4, progesterone]",–,~ 9.4 and 11.5 μM,~ 9.4 and 11.5 μM
